Data published in patent publication US12005049B2, “Methods of preventing cancer metastasis” (MediciNova, Inc., priority 2021, dated 2024).

What was measured:
[1] = tested on: Omm1.3 cells; test: Transwell migration assay; format: cell-based; conditions: HCM+UM-exo as chemoattractant, 24 hrs, 25 μM ibudilast, 10 μM diacerein, 1.0 μM reparixin, 0.25 μM crizotinib
Protocol: FIG. 1A depicts trans-well migration assay results in which Omm1.3 cells were stimulated with hepatocyte conditioned media and uveal melanoma exosomes (HCM+UM-exo) in the presence of vehicle (DMSO), 10 μM diacerein, 1.0 μM reparixin, 0.25 μM crizotinib or 25 μM ibudilast.
FIG. 1B depicts migrated cell count under the microscope from the trans-well migration assay, three fields for each condition. Experiments were repeated three times ±sd, p<0.001.
Exosome isolation. Exosomes were isolated from UM cell lines kept in serum-free media for 24 hrs. The media was collected and subjected to serial centrifugation steps starting with a spin at 3,000×g to remove dead cells and cell debris. The supernatant from this step is spun at 20,000×g to pellet microvesicles and large EVs. Lastly, the supernatant from this step is centrifuged at 100,000×g to pellet the exosome fraction.
Transwell migration assay. The in vitro migration assays were performed with 5×104 Omm1.3 cells seeded in 500 μL serum-free medium on BioCoat Matrigel Invasion Chambers (BD Biosciences). The conditioned media of the hepatocytes treated or untreated with UM-exosome was used as chemoattractant in the lower chamber. The cells were also treated with vehicle (DMSO), 0.25 μM crizotinib or 25 μM ibudilast for 24 hrs. […] Images of stained cells were taken through a microscope and quantified by counting cells in triplicate samples.

[2] = tested on: MP41 cells; test: Wound healing (scratch) assay, MP41; format: cell-based; conditions: exposed to HCM+UM-exo; data not shown
Protocol: (§1) Wound healing assay. Omm1.3 and MP41 cells were scratched with a sterile 200 μL pipette tip. Cells were washed in PBS and replaced with fresh RPMI 1640 complete media, or hepatocyte conditioned media (HCM) pretreated with UM-exo. Images of the wounded area were recorded using an inverted phase-contrast microscope at the indicated time points.

[3] = tested on: Omm1.3 cells; test: Wound healing (scratch) assay, Omm1.3; format: cell-based; conditions: exposed to HCM+UM-exo, 25 μM ibudilast, 48 hours
Protocol: as §1, with “FIG. 1C depicts Omm1.3 cells in scratch assays, in which after the scratch, the cells were incubated with control HCM or with HCM of hepatocytes exposed to UM-exosomes with or without 25 μM ibudilast. Pictures were taken at zero time-point or after 48 hours under a microscope at 10× magnification. Wound” for “Wound”

[4] = Sanftner et al Xenobiotica 2009; cited from earlier work
[5] = tested on: GFP-Luc-Omm1.3 cells; test: Metastatic uveal melanoma (UM) mouse model; format: in vivo; conditions: UM-exosome-educated mice, 7.5 mg/kg ibudilast i.p. daily
Protocol: FIG. 2A depicts quantification of bioluminescence intensity for each mouse in the abdominal region, while excluding bioluminescence in the eyes, in an evaluation of ibudilast in a metastatic UM mouse model. […] FIG. 2B depicts representative images of H&E-stained mouse liver sections from the metastatic UM mouse model. Mice were injected intravenously with vehicle (PBS) or 10 μg UM-exosome isolated from […] in 100 μL PBS for 7 days. Subsequently, GFP-Luc-Omm1.3 cells were retro-orbitally injected in the mice as described in Surriga et al. (Mol. Cancer Ther., 2013, 12:2817-26). Ibudilast was dissolved to a concentration of 1 mg/ml in physiological saline containing 10% v/v of polyoxyethylene hydrogenated castor oil 60 (HCO60). A week later, the mice were treated daily with vehicle or 7.5 mg/kg ibudilast i.p. and monitored for the development of metastasis. […] The mice were monitored weekly for luminescence with luciferin (Gold Biotechnology). After 7 weeks the livers and lungs were collected and analyzed for luminescence. Experiments were carried out under an Institutional Animal Care and Use Committee—approved (IACUC) protocol, and Institutional guidelines for the proper and humane use of animals were followed. Statistical significance was determined by 2-sample Student t-test.

[6] = tested on: MIF; test: Plasma level of MIF; conditions: found by the inventors; no method given

Compound: CC(C)C(=O)c1c(C(C)C)nn2ccccc12 [ibudilast, 2-methyl-1-(2-(1-methylethyl)pyrazolo(1,5-a)pyridin-3-yl)1-propanone]
- UM cell migration toward UM-exosome-stimulated hepatocyte conditioned media (HCM) [1]: dramatically inhibited cell migration
- wound healing ability of UM cell line MP41 [2]: suppressed the wound healing ability
- wound healing ability of UM cell line Omm1.3 [3]: suppressed the wound healing ability
- CNS penetration [4]: good. CNS penetration
- metastatic spread (bioluminescence signal intensity in the abdominal region) [5]: showed inhibition of metastatic spread
- presence of cancer cell clusters in liver sections (H&E staining) [5]: not in the livers
- bioluminescence in lungs and livers at necropsy ([5]; after 7 weeks): no bioluminescence signal in organs
- plasma level of MIF [6]: lowers plasma level of MIF
